In ChEMBL document CHEMBL1201862, “PubChem BioAssay data set” (2004):
Where “and” joins values, the source holds several entries; their conditions need not be identical. Equal values may be shown once.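 Growth conditions: 96-well plates. Treatment: test compound, 48 hours, 5 concentrations. Analysis: linear interpolation between bracketing concentrations; unreached endpoints set to highest concentration. Here, GI50 denotes the concentration required for 50% inhibition of growth.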 Calls of active or inactive are those of the source. Rule as the data show it: active = GI50 up to about 1.1 µM and inactive = higher.

What was measured:
Experiment in all cases: NCI-60 cell line screen, 48 h
[1] = system: BT-549
[2] = system: CAKI-1
[3] = system: HT-29
[4] = system: MDA-MB-435
[5] = system: SF-295
[6] = system: Malme-3M
[7] = system: PC-3
[8] = system: Hs-578T
[9] = system: RXF 393
[10] = system: SK-MEL-28
[11] = system: 786-0
[12] = system: SF-539
[13] = system: MDA-N
[14] = system: MCF7
[15] = system: UACC-62
[16] = system: SR
[17] = system: OVCAR-8
[18] = system: SW-620
[19] = system: COLO 205
[20] = system: TK-10
[21] = system: ACHN
[22] = system: T47D
[23] = system: NCI-H522
[24] = system: HCT-116
[25] = system: EKVX
[26] = system: SF-268
[27] = system: HL-60
[28] = system: NCI-H460
[29] = system: K562
[30] = system: A498
[31] = system: NCI-H226
[32] = system: LOX IMVI
[33] = system: NCI-H23
[34] = system: MOLT-4
[35] = system: SK-MEL-5
[36] = system: MDA-MB-231
[37] = system: SNB-19
[38] = system: HOP-92
[39] = system: UACC-257
[40] = system: DU-145
[41] = system: IGROV-1
[42] = system: HCT-15
[43] = system: OVCAR-5
[44] = system: OVCAR-4
[45] = system: SNB-75
[46] = system: SK-OV-3
[47] = system: CCRF-CEM
[48] = system: HOP-62
[49] = system: RPMI-8226
[50] = system: NCI/ADR-RES
[51] = system: OVCAR-3
[52] = system: M14
[53] = system: KM12
[54] = system: U-251
[55] = system: SK-MEL-2
[56] = system: SN12C
[57] = system: A549
[58] = system: HCC 2998
[59] = system: UO-31

With `c1ccc(NN(Cc2cnccn2)c2ccccc2)cc1` the GI50 [1] was > 100 µM (inactive), the GI50 [2] was > 100 µM (inactive) and the GI50 [3] was 97.3 µM (inactive). For the same compound, the GI50 [4] was 89.9 µM (inactive), the GI50 [5] was 73.8 µM (inactive) and the GI50 [6] was > 100 µM (inactive). For the same compound, the GI50 [7] was 65.8 µM (inactive), the GI50 [8] was > 100 µM (inactive) and the GI50 [9] was > 100 µM (inactive). For the same compound, the GI50 [10] was > 100 µM (inactive), the GI50 [11] was > 100 µM (inactive) and the GI50 [12] was > 100 µM (inactive). The GI50 [13] was 40.2 µM (inactive), the GI50 [14] was 44.9 µM (inactive) and the GI50 [15] was 81.8 µM (inactive). The GI50 [16] was 61.9 µM (inactive), the GI50 [17] was 66.7 µM (inactive) and the GI50 [18] was > 100 µM (inactive). The GI50 [19] was 84.3 µM (inactive), the GI50 [20] was > 100 µM (inactive) and the GI50 [21] was > 100 µM (inactive). For the same compound, the GI50 [22] was 68.4 µM (inactive), the GI50 [23] was 44 µM (inactive) and the GI50 [24] was 60.5 µM (inactive). For the same compound, the GI50 [25] was 75.5 µM (inactive), the GI50 [26] was > 100 µM (inactive) and the GI50 [27] was 67.5 µM (inactive). For the same compound, the GI50 [28] was 91.8 µM (inactive), the GI50 [29] was 47.5 µM (inactive) and the GI50 [30] was 28.8 µM (inactive). The GI50 [31] was 80.2 µM (inactive), the GI50 [32] was 77.6 µM (inactive) and the GI50 [33] was 83 µM (inactive). The GI50 [34] was 42.3 µM (inactive), the GI50 [35] was 40.2 µM (inactive) and the GI50 [36] was 76.9 µM (inactive). The GI50 [37] was > 100 µM (inactive), the GI50 [38] was 19.1 µM (inactive) and the GI50 [39] was 51.6 µM (inactive). The GI50 [40] was > 100 µM (inactive), the GI50 [41] was 83.2 µM (inactive) and the GI50 [42] was 79.8 µM. The GI50 [43] was > 100 µM (inactive), the GI50 [44] was 63 µM (inactive) and the GI50 [45] was > 100 µM (inactive). The GI50 [46] was > 100 µM (inactive), the GI50 [47] was 10.5 µM (inactive) and the GI50 [48] was > 100 µM (inactive). For the same compound, the GI50 [49] was 55.7 µM (inactive), the GI50 [50] was 40.5 µM (inactive) and the GI50 [51] was 63.4 µM (inactive). For the same compound, the GI50 [52] was 90.2 µM (inactive), the GI50 [53] was > 100 µM (inactive) and the GI50 [54] was 65 µM (inactive). For the same compound, the GI50 [55] was > 100 µM (inactive), the GI50 [56] was 63.8 µM (inactive) and the GI50 [57] was 42.2 µM (inactive).

With `COC(=O)C1OC(O[C@H]2CC[C@]3(C)[C@H]4CC=C5[C@@H]6CC(C)(C)CC[C@]6(C(=O)OC6OCC(O)C(O)C6OC6OC(C)C(OC7OCC(O)C(OC8OCC(O)C(O)C8O)C7O)C(OC7OCC(O)C(O)C7O)C6O)CC[C@@]5(C)[C@]4(C)CC[C@H]3C2(C)C)C(O)C(OC2OCC(O)C(O)C2O)C1O` (stereo partly drawn) the GI50 [1] was 3.01 µM (inactive) and 2.62 µM (inactive), the GI50 [2] was 5.24 µM (inactive) and 4.84 µM (inactive) and the GI50 [3] was 3.1 µM (inactive) and 2.9 µM (inactive). The GI50 [4] was 2.13 µM (inactive) and 2.14 µM (inactive), the GI50 [5] was 5.19 µM (inactive) and 3.39 µM (inactive) and the GI50 [6] was 3.61 µM (inactive) and 5.04 µM (inactive). For the same compound, the GI50 [7] was 4.46 µM (inactive) and 4.32 µM (inactive), the GI50 [8] was 16.1 µM (inactive) and 19.7 µM (inactive) and the GI50 [10] was 2.37 µM (inactive) and 2.07 µM (inactive). The GI50 [11] was 5.01 µM (inactive) and 7.71 µM (inactive), the GI50 [13] was 2.02 µM (inactive) and 1.79 µM (inactive) and the GI50 [14] was 4.71 µM (inactive) and 3.27 µM (inactive). The GI50 [15] was 3.08 µM (inactive) and 3.77 µM (inactive), the GI50 [16] was 1.75 µM (inactive) and 2.72 µM (inactive) and the GI50 [17] was 13.2 µM (inactive) and 10.4 µM (inactive). The GI50 [18] was 9.2 µM (inactive) and 8.04 µM (inactive), the GI50 [19] was 1.6 µM (inactive) and 1.52 µM (inactive) and the GI50 [20] was 7.35 µM (inactive) and 11.9 µM (inactive). The GI50 [21] was 4.84 µM (inactive) and 4.03 µM (inactive), the GI50 [22] was 3.45 µM (inactive) and 3.29 µM (inactive) and the GI50 [23] was 1.95 µM (inactive) and 1.77 µM (inactive). For the same compound, the GI50 [24] was 4.04 µM (inactive) and 4.85 µM (inactive), the GI50 [25] was 3.74 µM (inactive) and 3.72 µM (inactive) and the GI50 [26] was 6.53 µM (inactive) and 8.45 µM (inactive). For the same compound, the GI50 [27] was 2.28 µM (inactive) and 1.97 µM (inactive), the GI50 [29] was 4.94 µM (inactive) and 3.94 µM (inactive) and the GI50 [30] was 1.94 µM (inactive) and 1.66 µM (inactive). The GI50 [31] was 2.9 µM (inactive) and 4.98 µM (inactive), the GI50 [32] was 7.85 µM (inactive) and 5.43 µM (inactive) and the GI50 [33] was 4.52 µM (inactive) and 3.81 µM (inactive). For the same compound, the GI50 [34] was 8.24 µM (inactive) and 4.91 µM (inactive), the GI50 [35] was 3.8 µM (inactive) and 2.52 µM (inactive) and the GI50 [58] was 1.78 µM (inactive) and 1.67 µM (inactive). The GI50 [36] was 2.73 µM (inactive) and 3.51 µM (inactive), the GI50 [37] was 7.01 µM (inactive) and 6.22 µM (inactive) and the GI50 [38] was 2.19 µM (inactive) and 2.25 µM (inactive). The GI50 [39] was 3.17 µM (inactive) and 2.91 µM (inactive), the GI50 [40] was 5.79 µM (inactive) and 9.29 µM (inactive) and the GI50 [41] was 7.41 µM (inactive) and 9.25 µM (inactive). The GI50 [42] was 14.1 µM and 27.4 µM, the GI50 [43] was 5.31 µM (inactive) and 4.75 µM (inactive) and the GI50 [44] was 6.61 µM (inactive) and 5.24 µM (inactive). For the same compound, the GI50 [46] was 12.8 µM (inactive) and 16.6 µM (inactive), the GI50 [47] was 11.3 µM (inactive) and 10.6 µM (inactive) and the GI50 [49] was 2.62 µM (inactive) and 4.37 µM (inactive). For the same compound, the GI50 [50] was 5.11 µM (inactive) and 4.45 µM (inactive), the GI50 [51] was 9.25 µM (inactive) and 7.82 µM (inactive) and the GI50 [52] was 1.95 µM (inactive) and 2.25 µM (inactive). The GI50 [53] was 3.1 µM (inactive) and 3.08 µM (inactive), the GI50 [54] was 7.41 µM (inactive) and 6.87 µM (inactive) and the GI50 [59] was 2.01 µM (inactive) and 1.9 µM (inactive). The GI50 [55] was 2.22 µM (inactive) and 2.93 µM (inactive), the GI50 [56] was 2.25 µM (inactive) and 2.31 µM (inactive) and the GI50 [57] was 3.17 µM (inactive) and 3.16 µM (inactive).

`O=C(CCCn1ccnc1[N+](=O)[O-])NCCn1cncc1[N+](=O)[O-]` was tested, and the GI50 [1] was > 100 µM (inactive), the GI50 [2] was > 100 µM (inactive) and the GI50 [3] was > 100 µM (inactive). For the same compound, the GI50 [4] was > 100 µM (inactive), the GI50 [5] was > 100 µM (inactive) and the GI50 [6] was > 100 µM (inactive). For the same compound, the GI50 [7] was > 100 µM (inactive), the GI50 [8] was > 100 µM (inactive) and the GI50 [9] was > 100 µM (inactive). For the same compound, the GI50 [10] was > 100 µM (inactive), the GI50 [11] was > 100 µM (inactive) and the GI50 [12] was > 100 µM (inactive). For the same compound, the GI50 [13] was > 100 µM (inactive), the GI50 [14] was > 100 µM (inactive) and the GI50 [15] was > 100 µM (inactive). For the same compound, the GI50 [16] was > 100 µM (inactive), the GI50 [17] was > 100 µM (inactive) and the GI50 [18] was > 100 µM (inactive). The GI50 [19] was > 100 µM (inactive), the GI50 [20] was > 100 µM (inactive) and the GI50 [21] was > 100 µM (inactive). The GI50 [22] was > 100 µM (inactive), the GI50 [23] was > 100 µM (inactive) and the GI50 [24] was > 100 µM (inactive). For the same compound, the GI50 [25] was > 100 µM (inactive), the GI50 [26] was > 100 µM (inactive) and the GI50 [27] was > 100 µM (inactive). For the same compound, the GI50 [28] was > 100 µM (inactive), the GI50 [29] was > 100 µM (inactive) and the GI50 [30] was > 100 µM (inactive). For the same compound, the GI50 [31] was > 100 µM (inactive), the GI50 [32] was > 100 µM (inactive) and the GI50 [33] was > 100 µM (inactive). For the same compound, the GI50 [34] was > 100 µM (inactive), the GI50 [35] was > 100 µM (inactive) and the GI50 [36] was > 100 µM (inactive). The GI50 [38] was > 100 µM (inactive), the GI50 [39] was > 100 µM (inactive) and the GI50 [40] was > 100 µM (inactive). The GI50 [41] was > 100 µM (inactive), the GI50 [42] was > 100 µM and the GI50 [43] was > 100 µM (inactive). For the same compound, the GI50 [44] was > 100 µM (inactive), the GI50 [45] was > 100 µM (inactive) and the GI50 [46] was > 100 µM (inactive). For the same compound, the GI50 [47] was > 100 µM (inactive), the GI50 [48] was > 100 µM (inactive) and the GI50 [49] was > 100 µM (inactive). The GI50 [50] was > 100 µM (inactive), the GI50 [51] was > 100 µM (inactive) and the GI50 [52] was > 100 µM (inactive). The GI50 [53] was > 100 µM (inactive), the GI50 [54] was > 100 µM (inactive) and the GI50 [59] was > 100 µM (inactive). For the same compound, the GI50 [55] was > 100 µM (inactive), the GI50 [56] was > 100 µM (inactive) and the GI50 [57] was > 100 µM (inactive).
